{
  "source": "patent US20230013244A1",
  "about": "(BioIncept, LLC, priority 2014, published 2023)",
  "key": {"Granulocytes": {"system": "Granulocytes", "experiment": "FITC-PIF binding to mare immune cells, flow cytometry, granulocytes", "type": "cell-based", "description": "(§1) Method: whole blood was collected from jugular vein of pregnant (n=4) and non-pregnant (n=8) mares into lithium heparin vacutainers. Whole blood was layered over histopaque (Sigma) density gradient and red cells were allowed to settle through the gradient, leaving a leukocyte-rich plasma layer above. Cells were washed twice in sterile PBS and any remaining RBCs lysed with 0.16 M ammonium chloride solution. […] Cell types were separated based upon their scatter characteristics. […] FIG. 20 and Table 20 show mean+/−SEM in both pregnant and non-pregnant mares, and depicts binding characteristics showing significant differences between FITC-PIF and control, P<0.001."}, "Lymphocytes": {"system": "Lymphocytes", "experiment": "FITC-PIF binding to mare immune cells, flow cytometry, lymphocytes", "type": "cell-based", "description": "as §1"}, "[1]": {"system": "PBMCs (CD3+, CD4+/CD25+/FoxP3+, CD8+/CD25+ cells)", "experiment": "FITC-PIF binding to naive T-cell subsets of PBMCs, two- and three-color flow cytometry", "type": "cell-based, human"}, "Monocytes": {"system": "Monocytes", "experiment": "FITC-PIF binding to mare immune cells, flow cytometry, monocytes", "type": "cell-based", "description": "as §1"}},
  "data": [
    {"sequence": "GRVDPSNKSMPKDIA [PIFscr, scrambled PIF, control peptide]", "values": [
      {"measurement": "binding to Granulocytes, Mean", "setting": "Granulocytes; Non-pregnant mares, 1 ug/ml", "result": 0.26},
      {"measurement": "binding to Granulocytes, Mean", "setting": "Granulocytes; Pregnant mares, 1 ug/ml", "result": 0.09},
      {"measurement": "binding to Granulocytes, Mean", "setting": "Granulocytes; Pregnant mares, 5 ug/ml", "result": 0.93},
      {"measurement": "binding to Lymphocytes, Mean", "setting": "Lymphocytes; Non-pregnant mares, 1 ug/ml", "result": 0.27},
      {"measurement": "binding to Lymphocytes, Mean", "setting": "Lymphocytes; Pregnant mares, 1 ug/ml", "result": 0.12},
      {"measurement": "binding to Lymphocytes, Mean", "setting": "Lymphocytes; Pregnant mares, 5 ug/ml", "result": 0.78},
      {"measurement": "binding to CD4+/CD25+/FoxP3+ cells", "setting": "[1]; 0-100 uM", "result": "minimal binding"},
      {"measurement": "binding to CD3+/CD4+ cells", "setting": "[1]; FIG. 10A", "result": "not replicated"},
      {"measurement": "binding to Monocytes, Mean", "setting": "Monocytes; Non-pregnant mares, 1 ug/ml", "result": 1.10},
      {"measurement": "binding to Monocytes, Mean", "setting": "Monocytes; Non-pregnant mares, 5 ug/ml", "result": 5.20},
      {"measurement": "binding to Monocytes, Mean", "setting": "Monocytes; Pregnant mares, 1 ug/ml", "result": 0.78}
    ]}
  ]
}
